“And” between values parts separate entries of the source, which are not always exact repeats. Identical values can stand only once. “Also recorded” adds a separate entry of the source.
Columns and labels:
Type in all cases: in vivo, human
[1] = tested on: male patients with untreated, uncomplicated, essential hypertension; assay: Actigraphic estimates of sleep quality (Actiwatch)
Method: (§1) Measurements. […] Ambulatory blood pressure was measured every half hour for 32 hours, from 8 hours before bedtime until bedtime the next day. In addition, noninvasive finger arterial blood pressure recordings were performed by Finometer (TNO Biomedical Instruments, Amsterdam, The Netherlands) (Bos, W. J., et al., Circulation, 94 (1996) 1870-5), to estimate changes in total peripheral resistance, stroke volume, and cardiac output, as possible explanations for changes in blood pressure. […] During all ambulatory blood pressure recordings, the subjects reported sleep details in a sleep-wake diary and wore an Actiwatch (Cambridge Neurotechnology Ltd, Cambridge, UK), a piezo-electric accelerometer, on the non-dominant wrist to assess motor activity at 1 min intervals for the estimation of sleep quality.
(§2) Data analysis. Sleep blood pressure was defined as the mean blood pressure from the time of falling asleep until the time of awakening, as determined by actigraphy. Awake blood pressure was defined as the mean blood pressure during the remaining portion of the day. Continuous Finometer data were analyzed by Beatscope software (TNO-Biomedical Instruments, Amsterdam, The Netherlands) (Bos, W. J., et al., Circulation, 94 (1996) 1870-5). Periods of 5 min with a stable blood pressure signal were used for both supine and standing periods. To accurately determine the sleeping period and estimate sleep quality, automatic sleep/wake scoring was performed with Actiwatch Sleep Analysis 98 (Cambridge Neurotechnology Ltd, V4.15), with sensitivity set to medium, on the actigraphy data between “bed time” and “get up time” derived from the sleep-wake diaries. Three sleep variables were objectively computed by this analysis. ‘Sleep latency’ was the calculated time between bed time and sleep onset. The time asleep was termed actual sleep time. The percentage of time asleep while in bed was defined as ‘sleep efficiency’.

[2] = tested on: male patients with untreated, uncomplicated, essential hypertension; assay: 24-hour ambulatory blood pressure and heart rate, randomized double-blind placebo-controlled crossover trial
Description: Patients. Sixteen male patients with untreated, uncomplicated, essential hypertension were included in the study. Women were excluded to prevent possible interference of the menstrual cycle and oral anticonceptives on cardiovascular and circadian regulation. Patients were considered hypertensive, with a daytime ambulatory blood pressure between 140-179 mm Hg systolic or between 90-109 mm Hg diastolic. Secondary hypertension was excluded by medical history and routine laboratory tests. Five patients had never received antihypertensive medication; in the others antihypertensive treatment was stopped at least three weeks before participation. Their mean (±SD) age was 55±8 (range 36-68) years and mean BMI was 26.8±.1.7 (23.3-29.1) kg/m^2. Mean self reported habitual waking and bedtimes were 06:38 a.m. ±55 minutes and 11:29 p.m. ±26 minutes, respectively. […] Five days before and during ambulatory blood pressure measurements, subjects maintained fixed sleep-wake cycles according to their habitual sleep-wake cycle. All procedures were carried out with adequate understanding and written consent of the subjects and were approved by the Ethics Committee of the Academic Medical Center of the University of Amsterdam.
Study Design. […] On assessment days, patients abstained from heavy physical exercise, daytime napping, alcohol and nicotine consumption and coffee was restricted to two consumptions per day during breakfast or lunch. Meal times were restricted to the following periods: breakfast 1 to 1.5 hours after waking; lunch 11 to 10 hours before bedtime; and dinner 5 to 4 hours before bedtime.
as §1, §2
Statistics. Because not all variables were normally distributed (Shapiro's-Wilk's W Test), non-parametric tests were used as required. Consequently, Altman's crossover analysis methods were applied (Altman, D. G., Crossover trials, Practical statistics for medical research, Vol. 1, Chapman and Hall. London, 1991, pp. 467-471). […]

[3] = tested on: male patients with untreated, uncomplicated, essential hypertension; assay: 24-hour rhythm analysis of ambulatory blood pressure (peaked and skewed cosine fit)
Description: Statistics. Because not all variables were normally distributed (Shapiro's-Wilk's W Test), non-parametric tests were used as required. Consequently, Altman's crossover analysis methods were applied (Altman, D. G., Crossover trials, Practical statistics for medical research, Vol. 1, Chapman and Hall. London, 1991, pp. 467-471). […] Student's t-tests for independent variables or Mann-Whitney U tests were applied for all dependent variables to test a carryover effect for (1) single treatment periods, and (2) repeated treatment periods. Correlation between a change in sleep quality and a change in sleep blood pressure was tested by linear correlation. The 24-hour rhythm in blood pressure was fitted by standard cyclic regression models: cosine, cosine with second harmonic, skewed cosine, peaked cosine, and skewed and peaked cosine analysis (Batschelet, E., Circular Statistics in Biology, Academic Press, 1981, 371 pp.). Of these, the latter best fitted the data as indicated by the Akaike's Information Criterion (AIC) (de Leeuw, J., introduction to Akaike (1973) Information Theory and an Extension of the Maximum Likelihood Principle. In S. Kotz and N. L. Johnson (Eds.), Breakthroughs in statistics, Vol. 1, Springer-Verlag. London, 1992 pp. 599-609) and was used for subsequent analysis. Two-tailed p values lower than 0.05 were considered to indicate statistical significance. All group data are presented as means±standard deviation (SD) or means including 95% confidence interval (95% CI).
24-Hour rhythm analysis of ambulatory blood pressure. For 24-hour rhythm analysis of ambulatory blood pressure, the peaked and skewed cosine analysis was used. […] The decrease in minimum and mean systolic blood pressure was not significant (−6±15 mm Hg; p=0. 13 and −5±12 mm Hg; p=0. 19).

[4] = tested on: male patients with untreated, uncomplicated, essential hypertension; assay: Finger arterial blood pressure recordings by Finometer; conditions: repeated melatonin; supine resting or standing, daytime
Method: as §1, §2

[5] = 3 weeks melatonin vs 3 weeks placebo, not significant
[6] = acute (single) melatonin 2.5 mg vs single placebo
[7] = after 3 weeks melatonin 2.5 mg orally 1 hour before bedtime, mean ± SD
[8] = individual patient 14, relative to placebo level (FIG. 2)
[9] = 3 weeks melatonin vs 3 weeks placebo
[10] = repeated melatonin vs placebo, no effect

## COc1ccc2[nH]cc(CCNC(C)=O)c2c1 [Melatonin, N-acetyl-5-methoxy-tryptamine]
[1]; acute melatonin application
  effect on actual sleep time: no significant effect
  effect on sleep latency: no significant effect
[1]; after repeated melatonin (placebo 33 minutes)
  sleep latency: 22 min
[1]; after repeated melatonin (placebo 5.6 hours)
  actual sleep time: 6.1 h
[2]; [5]
  change in awake diastolic blood pressure: −1 mm Hg
  change in awake systolic blood pressure: −5 mm Hg
[2]; [6]
  effect on diastolic blood pressure awake: no effect
  effect on diastolic blood pressure whilst asleep: no effect
  effect on systolic blood pressure awake: no effect
  effect on systolic blood pressure whilst asleep: no effect
[2]; [7]
  Sleeping Period Distolic BP: 82.4 ± 4.0
  Sleeping Period Heart Rate: 61.1 ± 6.5
  Sleeping Period Systolic BP: 130.6 ± 10.0
  Waking Period Distolic BP: 95.4 ± 7.7
  Waking Period Heart Rate: 71.2 ± 7.8
  Waking Period Systolic BP: 147.6 ± 12.3
[2]; [8]
  effect of repeated melatonin on waking diastolic blood pressure, patient 14: −27 mm Hg
  effect of repeated melatonin on waking systolic blood pressure, patient 14: −53 mm Hg
[2]; repeated (3 weeks daily) 2.5 mg melatonin 1 hour before bedtime vs 3 weeks placebo
  reduction of sleep diastolic blood pressure: 4±6 mm Hg and 4 mm Hg
[2]; repeated (3 weeks daily) 2.5 mg melatonin vs placebo
  effect on heart rate: without a change; also recorded: did not affect
[2]; single dose of melatonin 2.5 mg
  effect on blood pressure: no effect
[3]; [9]
  decrease of calculated mean diastolic blood pressure: 4±6 mm Hg
  decrease of calculated minimum diastolic blood pressure: 5±7 mm Hg
  increase of day-night rhythm amplitude of diastolic blood pressure: 25%
  increase of day-night rhythm amplitude of systolic blood pressure: 15%
[3]; [5]
  change in mean systolic blood pressure: −5±12 mm Hg
  change in minimum systolic blood pressure: −6±15 mm Hg
[3]; repeated melatonin vs placebo
  effect on time of the minimum blood pressure: no effects
[3]; [10]
  change in maximum diastolic blood pressure: −1±5 mm Hg
  change in maximum systolic blood pressure: −2±12 mm Hg
[4]
  effect on blood pressure (Finometer): no elect
  effect on cardiac output (Finometer): no elect
  effect on heart rate (Finometer): no elect
  effect on stroke volume (Finometer): no elect
  effect on total peripheral resistance (Finometer): no elect

From patent US20050137247A1, “Methods and compositions for treatment of hypertension” (The Brigham and Women's Hospital, Inc., priority 2003, published 2005)
